Columns and labels:
[1] = target: Sodium-dependent dopamine transporter (Rattus norvegicus, UniProt P23977); test: Evaluated for the Competitive inhibition of uptake of dopamine transporter
[2] = species on record: Mus musculus; test: Long term depletion of Serotonin(5-HT) in Whole mouse Brain at a low dose (60 nmol); assay type: functional
[3] = species on record: Rattus norvegicus; test: Evaluated for the stimulation of synaptosomal release of Dopamine (release constant); assay type: functional
[4] = target: T1, Norepinephrine transporter (Rattus norvegicus, UniProt Q9WTR4); test: Evaluated for the Competitive inhibition of uptake of norepinephrine
T1 sequence (Q9WTR4 whole entry): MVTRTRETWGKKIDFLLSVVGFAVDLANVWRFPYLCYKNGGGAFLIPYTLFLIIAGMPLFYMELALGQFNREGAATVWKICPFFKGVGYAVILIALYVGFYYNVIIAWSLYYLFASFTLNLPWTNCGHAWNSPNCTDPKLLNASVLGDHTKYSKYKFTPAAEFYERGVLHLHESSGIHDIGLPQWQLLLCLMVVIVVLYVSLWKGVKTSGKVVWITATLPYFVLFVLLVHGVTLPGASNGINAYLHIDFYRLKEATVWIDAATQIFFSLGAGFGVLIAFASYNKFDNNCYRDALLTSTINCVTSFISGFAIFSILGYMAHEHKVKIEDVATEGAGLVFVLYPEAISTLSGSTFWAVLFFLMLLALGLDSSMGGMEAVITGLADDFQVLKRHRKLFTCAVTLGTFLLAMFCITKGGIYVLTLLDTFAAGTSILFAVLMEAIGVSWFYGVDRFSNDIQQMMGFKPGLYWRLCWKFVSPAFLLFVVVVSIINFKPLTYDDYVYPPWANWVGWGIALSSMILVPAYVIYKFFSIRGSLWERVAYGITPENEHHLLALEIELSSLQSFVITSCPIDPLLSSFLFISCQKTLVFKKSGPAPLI

[5] = species on record: Mus musculus; test: Long term depletion of Norepinephrine (NE) in Whole mouse Brain at a low dose (60 nmol); assay type: functional
[6] = species on record: Mus musculus; test: Long term depletion of Dopamine(DA) in Whole mouse Brain at a low dose (60 nmol); assay type: functional
[7] = species on record: Rattus norvegicus; test: Evaluated for the stimulation of synaptosomal release of norepinephrine (release constant); assay type: functional
[8] = species on record: Mus musculus; test: Long term depletion of Serotonin(5-HT) in Whole mouse Brain at a high dose (300 nmol); assay type: functional
[9] = species on record: Mus musculus; test: Long term depletion of Norepinephrine (NE) in Whole mouse Brain at a high dose (300 nmol); assay type: functional
[10] = species on record: Mus musculus; test: Long term depletion of Dopamine(DA) in Whole mouse Brain at a high dose (300 nmol); assay type: functional
[11] = species on record: Mus musculus; test: Long term depletion of Dopamine(DA) in Whole mouse Brain region of hippocampus at a high dose (300 nmol); assay type: functional
[12] = species on record: Mus musculus; test: Noradrenergic effect was determined by depletion effect of Dopamine(DA) in mouse brain regions expressed as log d50; assay type: functional, organism-based
[13] = species on record: Mus musculus; test: Noradrenergic effect was determined by depletion effect of Nerepinephrine (NE) in mouse brain regions expressed as log d50; assay type: functional, organism-based
[14] = species on record: Mus musculus; test: Long term depletion of Serotonin(5-HT) in Whole mouse Brain region of medulla-pons at a high dose (300 nmol); assay type: functional
[15] = species on record: Mus musculus; test: Long term depletion of Dopamine(DA) in Whole mouse Brain, region of midbrain at a high dose (300 nmol); assay type: functional
[16] = species on record: Mus musculus; test: Noradrenergic effect was determined by depletion effect of Serotonin(5-HT) in mouse brain regions expressed as log d50; assay type: functional, organism-based
[17] = species on record: Mus musculus; test: Long term depletion of Dopamine(DA) in Whole mouse Brain region of striatum at a high dose (300 nmol); assay type: functional
[18] = species on record: Mus musculus; test: Noradrenergic effect was determined by depletion effect of Nerepinephrine (NE) in mouse brain regions expressed as d50; assay type: functional
[19] = species on record: Mus musculus; test: Long term depletion of Dopamine(DA) in Whole mouse Brain region of thalamus at a high dose (300 nmol); assay type: functional
[20] = species on record: Mus musculus; test: Long term depletion of Serotonin(5-HT) in Whole mouse Brain region of cerebellum at a high dose (300 nmol); assay type: functional
[21] = species on record: Mus musculus; test: Long term depletion of Serotonin(5-HT) in Whole mouse Brain, region of midbrain at a high dose (300 nmol); assay type: functional
[22] = species on record: Mus musculus; test: Long term depletion of Dopamine(DA) in Whole mouse Brain region of cortex at a high dose (300 nmol); assay type: functional
[23] = species on record: Mus musculus; test: Long term depletion of Norepinephrine (NE) in Whole mouse Brain region of thalamus at a high dose (300 nmol); assay type: functional
[24] = species on record: Mus musculus; test: Noradrenergic effect was determined by depletion effect of Dopamine(DA) in mouse brain regions expressed as d50; assay type: functional
[25] = species on record: Mus musculus; test: Long term depletion of Norepinephrine (NE) in Whole mouse Brain region of striatum at a high dose (300 nmol); assay type: functional
[26] = species on record: Mus musculus; test: Long term depletion of Dopamine(DA) in Whole mouse Brain region of hypothalamus at a high dose (300 nmol); assay type: functional
[27] = species on record: Mus musculus; test: Long term depletion of Norepinephrine (NE) in Whole mouse Brain region of hippocampus at a high dose (300 nmol); assay type: functional
[28] = species on record: Mus musculus; test: Long term depletion of Norepinephrine (NE) in Whole mouse Brain region of cortex at a high dose (300 nmol); assay type: functional
[29] = species on record: Mus musculus; test: Long term depletion of Norepinephrine (NE) in Whole mouse Brain region of hypothalamus at a high dose (300 nmol); assay type: functional
[30] = species on record: Mus musculus; test: Long term depletion of Serotonin(5-HT) in Whole mouse Brain region of hypothalamus at a high dose (300 nmol); assay type: functional
[31] = species on record: Mus musculus; test: Long term depletion of Norepinephrine (NE) in Whole mouse Brain region of medulla-pons at a high dose (300 nmol); assay type: functional
[32] = species on record: Mus musculus; test: Long term depletion of Serotonin(5-HT) in Whole mouse Brain region of cortex at a high dose (300 nmol); assay type: functional
[33] = species on record: Mus musculus; test: Long term depletion of Norepinephrine (NE) in Whole mouse Brain, region of midbrain at a high dose (300 nmol); assay type: functional
[34] = species on record: Mus musculus; test: Noradrenergic effect was determined by depletion effect of Serotonin(5-HT) in mouse brain regions expressed as d50; assay type: functional
[35] = species on record: Mus musculus; test: Long term depletion of Serotonin(5-HT) in Whole mouse Brain region of thalamus at a high dose (300 nmol); assay type: functional
[36] = species on record: Mus musculus; test: Long term depletion of Serotonin(5-HT) in Whole mouse Brain region of hippocampus at a high dose (300 nmol); assay type: functional
[37] = species on record: Mus musculus; test: Long term depletion of Dopamine(DA) in Whole mouse Brain region of cerebellum at a high dose (300 nmol); assay type: functional
[38] = species on record: Mus musculus; test: Long term depletion of Dopamine(DA) in Whole mouse Brain region of medulla-pons at a high dose (300 nmol); assay type: functional
[39] = species on record: Mus musculus; test: Long term depletion of Serotonin(5-HT) in Whole mouse Brain region of striatum at a high dose (300 nmol); assay type: functional
[40] = species on record: Mus musculus; test: Long term depletion of Norepinephrine (NE) in Whole mouse Brain region of cerebellum at a high dose (300 nmol); assay type: functional
[41] = target: T1, Norepinephrine transporter; test: Evaluated for the Non competitive inhibition of uptake of norepinephrine
[42] = species on record: Mus musculus; test: Long term depletion of Norepinephrine (NE) in Whole mouse Brain region of hippocampus at a high dose (300 nmol) with respect to control value(100+/-10); assay type: functional
[43] = species on record: Mus musculus; test: Long term depletion of Dopamine(DA) in Whole mouse Brain region of medulla-pons at a high dose (300 nmol) with respect to control value(100+/-8); assay type: functional
[44] = species on record: Mus musculus; test: Long term depletion of Serotonin(5-HT) in Whole mouse Brain region of medulla-pons at a high dose (300 nmol) with respect to control value(100+/-6); assay type: functional
[45] = species on record: Mus musculus; test: Long term depletion of Dopamine(DA) in Whole mouse Brain region of cerebellum at a high dose (300 nmol) with respect to control value(100+/-9); assay type: functional
[46] = species on record: Mus musculus; test: Long term depletion of Norepinephrine (NE) in Whole mouse Brain region of cortex at a high dose (300 nmol) with respect to control value(100+/-6); assay type: functional
[47] = species on record: Mus musculus; test: Long term depletion of Norepinephrine (NE) in Whole mouse Brain, region of midbrain at a high dose (300 nmol) with respect to control value(100+/-8); assay type: functional
[48] = species on record: Mus musculus; test: Long term depletion of Dopamine(DA) in Whole mouse Brain region of hypothalamus at a high dose (300 nmol) with respect to control value(100+/-14); assay type: functional
[49] = species on record: Mus musculus; test: Long term depletion of Norepinephrine (NE) in Whole mouse Brain region of medulla-pons at a high dose (300 nmol) with respect to control value(100+/-9); assay type: functional

Sequence of Sodium-dependent dopamine transporter (P23977 whole entry): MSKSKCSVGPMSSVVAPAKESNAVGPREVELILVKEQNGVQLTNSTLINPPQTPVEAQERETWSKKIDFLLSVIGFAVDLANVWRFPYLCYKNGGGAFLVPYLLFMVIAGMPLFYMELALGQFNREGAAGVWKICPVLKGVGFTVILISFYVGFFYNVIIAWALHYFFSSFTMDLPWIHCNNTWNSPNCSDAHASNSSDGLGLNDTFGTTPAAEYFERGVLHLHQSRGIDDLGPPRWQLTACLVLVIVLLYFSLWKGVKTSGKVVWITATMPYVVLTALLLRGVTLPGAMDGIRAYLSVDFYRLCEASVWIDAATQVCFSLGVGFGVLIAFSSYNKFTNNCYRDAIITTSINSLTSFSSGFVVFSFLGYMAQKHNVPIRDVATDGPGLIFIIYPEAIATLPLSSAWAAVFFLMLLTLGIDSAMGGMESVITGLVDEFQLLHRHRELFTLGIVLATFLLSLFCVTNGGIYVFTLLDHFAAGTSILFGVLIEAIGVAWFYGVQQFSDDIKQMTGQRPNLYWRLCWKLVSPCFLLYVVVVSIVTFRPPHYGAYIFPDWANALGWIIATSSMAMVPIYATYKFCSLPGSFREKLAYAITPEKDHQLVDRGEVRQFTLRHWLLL

CC(N)Cc1cc(O)c(O)cc1O (stereo unspecified)
Ki [1]: 16 nM | Control [2]: 93% | EC50 [3]: 101000 nM | Ki [4]: 26 nM | Control [5]: 25% | Control [6]: 87% | EC50 [7]: 317000 nM

NCCc1cc(N)c(O)cc1O
Control [8]: 96% | Control [9]: 36% | Ki [1]: 47 nM | percent of control [10]: 84% | Control [2]: 91% | EC50 [3]: 105000 nM | Ki [4]: 13 nM | Control [5]: 40% | Control [6]: 96% | EC50 [7]: 212000 nM

CC(N)Cc1cc(O)c(O)cc1N (stereo unspecified)
Control [8]: 59% | Control [9]: 26% | Ki [1]: 9 nM | percent of control [10]: 77% | Control [2]: 72% | EC50 [3]: 7000 nM | Ki [4]: 8 nM | Control [5]: 32% | Control [6]: 96% | EC50 [7]: 21000 nM

NCCc1cc(O)c(N)cc1O
Control [8]: 72% | Control [9]: 39% | Ki [1]: 9 nM | percent of control [10]: 85% | Control [2]: 73% | EC50 [3]: 21000 nM | Ki [4]: 5 nM | Control [5]: 37% | Control [6]: 100% | EC50 [7]: 34000 nM

CC(N)Cc1cc(N)c(O)cc1O (stereo unspecified)
Control [11]: 42% | Log d50 [12]: 0.00296 µM | Log d50 [13]: 0.00133 µM | Control [14]: 101% | Control [8]: 83% | Control [15]: 116% | Log d50 [16]: 0.00351 µM | Control [17]: 71% | d50 [18]: 21.5 nmol | Control [9]: 22% | Control [19]: 154% | Control [20]: 77% | Ki [1]: 112 nM | Control [21]: 75% | Control [22]: 57% | Control [23]: 14% | d50 [24]: 918 nmol | percent of control [10]: 74% | Control [2]: 103% | Control [25]: 7% | Control [26]: 120% | Control [27]: 6.4% | EC50 [3]: 380000 nM | Control [28]: 8% | Control [29]: 1.3% | Control [30]: 75% | Control [31]: 59% | Control [32]: 78% | Ki [4]: 46 nM | Control [33]: 74% | Control [5]: 26% | d50 [34]: 3220 nmol | Control [35]: 93% | Control [36]: 63% | Control [37]: 63% | Control [38]: 110% | Control [39]: 104% | Control [40]: 3.4% | Control [6]: 100% | EC50 [7]: 672000 nM

CC(N)Cc1cc(O)c(N)cc1O (stereo unspecified)
Control [8]: 83% | Control [9]: 40% | Ki [1]: 3 nM | percent of control [10]: 88% | Control [2]: 79% | Ki [41]: 1 nM | EC50 [3]: 8000 nM | Control [5]: 33% | Control [6]: 100% | EC50 [7]: 51000 nM

NCCc1cc(O)c(O)cc1O [OXIDOPAMINE]
Control [11]: 25% | Log d50 [12]: 0.00292 µM | Control [42]: 5.3% | Control [43]: 158% | Log d50 [13]: 0.00153 µM | Control [8]: 88% | Control [15]: 88% | Log d50 [16]: 0.00328 µM | Control [17]: 76% | d50 [18]: 34.3 nmol | Control [9]: 35% | Control [19]: 151% | Control [20]: 79% | Control [44]: 109% | Ki [1]: 12 nM | Control [21]: 89% | Control [22]: 53% | Control [23]: 18% | Control [45]: 72% | Control [46]: 9% | d50 [24]: 831 nmol | percent of control [10]: 71% | Control [47]: 70% | Control [48]: 116% | Control [25]: 23% | EC50 [3]: 60000 nM | Control [29]: 6.9% | Control [30]: 89% | Control [49]: 47% | Control [32]: 82% | Ki [4]: 51 nM | Control [5]: 40% | d50 [34]: 1930 nmol | Control [35]: 90% | Control [36]: 71% | Control [39]: 103% | Control [40]: 3.8% | Control [6]: 86% | EC50 [7]: 828000 nM

NCCc1cc(O)c(O)cc1N
Control [8]: 74% | Control [9]: 37% | Ki [1]: 17 nM | percent of control [10]: 79% | Control [2]: 78% | EC50 [3]: 3000 nM | Ki [4]: 11 nM | Control [5]: 40% | Control [6]: 90% | EC50 [7]: 23000 nM

From ChEMBL document CHEMBL1128462, “In vivo and in vitro studies on the neurotoxic potential of 6-hydroxydopamine analogs” (J Med Chem, 1995)
